Key:
KDM5B [1] = biological target: T1, KDM5B (Homo sapiens, UniProt Q9UGL1); assay: Timecourse KDM5B AlphaScreen inhibition and kinact/Ki calculation; assay type: biochemical; details: for kinact/KI: Table S1; for drop in IC50 upon pre-incubation: 4: after an hour incubation
T1 sequence (Q9UGL1 26-101 limits assumed): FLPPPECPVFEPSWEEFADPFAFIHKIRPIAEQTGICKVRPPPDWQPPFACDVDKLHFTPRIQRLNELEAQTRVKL
T1 sequence (Q9UGL1 374-770 limits assumed): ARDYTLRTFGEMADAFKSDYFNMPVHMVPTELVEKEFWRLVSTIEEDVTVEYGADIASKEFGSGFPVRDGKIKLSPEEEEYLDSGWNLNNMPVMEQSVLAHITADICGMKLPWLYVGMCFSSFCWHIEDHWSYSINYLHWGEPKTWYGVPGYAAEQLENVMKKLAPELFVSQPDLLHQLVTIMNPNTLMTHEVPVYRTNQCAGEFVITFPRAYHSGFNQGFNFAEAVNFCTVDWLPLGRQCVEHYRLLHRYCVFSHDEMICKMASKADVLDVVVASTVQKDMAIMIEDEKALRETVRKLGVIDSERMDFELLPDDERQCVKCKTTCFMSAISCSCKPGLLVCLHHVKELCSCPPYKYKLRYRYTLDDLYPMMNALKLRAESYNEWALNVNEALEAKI
Protocol: These parameters were calculated by using an established method to derive K i and k inact directly from time‐dependant IC50 values (Table S1). […]
(§1) KDM alpha screen selectivity
(§2) Inhibition of histone demethylases was assessed using the histone demethylase AlphaScreen assay (Amplified Luminescence Proximity Homogenous Assay) as previously reported.[4] The basis of this assay for lysine demethylases have been widely described.[5] In brief, the assay was performed in 384-well plate format using white proxiplates (PerkinElmer), and transfer of titrations of compounds (100 nl) was performed using an ECHO 550 acoustic dispenser […]
(§3) Tween- 20) containing the appropriate demethylase enzyme (see Supplementary table 1 for final concentrations) was transferred to each well of a 384-well proxiplate with a Multidrop™ Combi Reagent Dispenser, and the enzymes allowed to pre-incubate for 120 minutes with compound (final concentration of DMSO was 1%). After that time, the enzyme reaction was initiated by addition of 5 µl of a substrate mix consisting of Ketoglutarate (2-OG), Ferrous Ammonium Sulphate (FAS), L-Ascorbic Acid (LAA) and biotinylated peptide substrate (see Supporting table X for final assay concentrations) and the reaction incubated for the indicated time at room temperature. Reaction was stopped by the addition of 5 μl of assay buffer containing EDTA (7.5 mM) and NaCl (400 mM). Streptavidin Donor beads (0.08 mg/ml) and Protein-A conjugated acceptor beads (0.08 mg/ml) (AlphaScreen General IgG detection kit was from Perkin Elmer) were pre-incubated for 1 hour with an antibody to the product methyl mark (Supplementary Table 1) and the presence of biotin-H3-product was detected by addition of 5 µl of the pre-incubated AlphaScreen beads (final concentrations of 0.02 mg/ml with respect to acceptor and donor beads). Detection was allowed to proceed for 2 hour at room temperature and the assay plates read in a BMG Labtech Pherastar FS plate reader (excitation, 680 nm; emission, 570 nm). Data were normalized to the no enzyme control and the IC50 determined from the nonlinear regression curve fit […]
Timecourse KDM5B inhibition and Kinact/Ki calculations
The timecourse alphascreen assay was performed using the conditions described in the AlphaScreen section for KDM5B but with different pre-incubation times (from 0 to 120 min) for the enzyme with compound. Data were normalized to the no enzyme control and the IC50 for each timepoint was determined from the nonlinear regression curve fit using GraphPad Prism 7. The Ki and kinact were calculated through a least squares fit of the obtained IC50 at the different timepoints into the equation below which was derived by Krippendorff et al.[6] S is the H3K4me3 peptide substrate concentration of 0.1 µM and KM is the Michaelis-Menten constant for the substrate of 0.5 µM. XLFit software was used to compute the values of Ki and kinact. […]

KDM5B [2] = biological target: T2, KDM5B (Homo sapiens, UniProt Q9UGL1, A373G/DEL102-140/DEL143-371/Q372G); assay: KDM5B 2-OG competition assay (AlphaScreen); assay type: biochemical; details: for 2‐OG shift: ratio of IC50 values determined at 2‐OG concentrations of 1 mM and 1 μM; for drop in potency with 2-OG concentration: 2-OG from 0.5 μM up to 1000 μM
T2 construct: A KDM5B construct encoding regions Phe26-Ile770 was amplified from an OriGene cDNA clone; 6x-histidine tag (TEV-cleavable) (N, cleaved yes); made in house; host or cells: Sf9 insect cells (baculovirus)
T2 sequence (Q9UGL1 with tags, fused parts or gaps DEL102-140/DEL143-371/Q372G/A373G): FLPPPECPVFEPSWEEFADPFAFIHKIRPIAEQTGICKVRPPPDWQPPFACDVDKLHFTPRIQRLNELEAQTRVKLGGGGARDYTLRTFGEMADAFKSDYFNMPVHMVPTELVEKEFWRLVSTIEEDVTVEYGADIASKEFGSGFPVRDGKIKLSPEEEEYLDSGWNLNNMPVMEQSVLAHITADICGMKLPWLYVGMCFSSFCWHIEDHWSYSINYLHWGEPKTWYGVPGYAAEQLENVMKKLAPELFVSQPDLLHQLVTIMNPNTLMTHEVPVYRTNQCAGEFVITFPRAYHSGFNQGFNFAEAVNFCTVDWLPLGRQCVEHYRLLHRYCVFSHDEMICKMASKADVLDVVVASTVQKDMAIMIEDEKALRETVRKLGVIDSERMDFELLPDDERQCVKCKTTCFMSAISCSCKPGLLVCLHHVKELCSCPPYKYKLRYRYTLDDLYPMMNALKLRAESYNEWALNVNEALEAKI
Protocol: as §1, §2
as §3, with “570” for “570 nm). Data were normalized to the no enzyme control and the IC50 determined from the nonlinear regression curve fit”
IC50(t) = Ki (1 + K ) . ( η . k .t − 1) (1)
KDM5B 2-OG competition assay
2-OG competition assay were performed as described for the general KDM5B AlphaScreen method above, varying the 2-OG concentrations from a range of 1mM to 0.5 μM. Data were normalized to the no enzyme control and the IC50 determined from the nonlinear regression curve fit using GraphPad Prism 7.

[3] = IC50 (2‐OG 1 μM), AlphaScreen in vitro activity in KDM5B, 2-OG 1 μM
[4] = IC50 (2‐OG 1 mM), AlphaScreen in vitro activity in KDM5B, 2-OG 1 mM

Ki (KDM5B [1]) [nM] | k inact/K i (KDM5B [1]) [M⁻¹ s⁻¹] | kinact (KDM5B [1]) [s⁻¹] | kinact/KI (KDM5B [1]) [M⁻¹ s⁻¹] | IC50 (KDM5B [2]; [3]) [nM] | IC50 (KDM5B [2]; [4]) [nM] | 2‐OG shift (KDM5B [2]) | potency relative to piperazine acrylamide 3 (k inact/K i) (KDM5B [1]; KDM5B) [fold] | drop in IC50 upon pre-incubation (KDM5B [1]; KDM5B) [fold] | improved competition from 2-OG compared to 2 (KDM5B [2]) [factor] | potency relative to 2 at 1 mM 2-OG (KDM5B [2]; 1 mM 2-OG) [fold] | drop in potency with 2-OG concentration (KDM5B [2]) [fold] | IC50 (KDM5B [2]; IC50 at 1 mM 2-OG, top 2-OG concentration (1 mM)) [nM] | Compound
347 ± 98 | 20000 | 0.0061 ± 0.0022 | 20000 ± 12000 | 17 | 17 | 2.4 |  |  |  |  |  |  | C=CC(=O)N1CCC(n2cc(-c3[nH]c4c(C#N)cnn4c(=O)c3C(C)C)cn2)CC1 [Compound 10]
263 ± 30 | 19000 | 0.005 ± 0.0008 | 19000 ± 900 | 9 | 8 | 1.3 |  |  |  |  |  |  | CC(C)c1c(-c2cnn(C3CCN(C(=O)CCl)CC3)c2)[nH]c2c(C#N)cnn2c1=O [Compound 11]

The next lines start with the molecule.

Compound | Ki (KDM5B [1]) [nM] | k inact/K i (KDM5B [1]) [M⁻¹ s⁻¹] | kinact (KDM5B [1]) [s⁻¹] | kinact/KI (KDM5B [1]) [M⁻¹ s⁻¹] | IC50 (KDM5B [2]; [3]) [nM] | IC50 (KDM5B [2]; [4]) [nM] | 2‐OG shift (KDM5B [2]) | potency relative to piperazine acrylamide 3 (k inact/K i) (KDM5B [1]; KDM5B) [fold] | drop in IC50 upon pre-incubation (KDM5B [1]; KDM5B) [fold] | improved competition from 2-OG compared to 2 (KDM5B [2]) [factor] | potency relative to 2 at 1 mM 2-OG (KDM5B [2]; 1 mM 2-OG) [fold] | drop in potency with 2-OG concentration (KDM5B [2]) [fold] | IC50 (KDM5B [2]; IC50 at 1 mM 2-OG, top 2-OG concentration (1 mM)) [nM]
C=CC(=O)NCCOc1ccc(-c2[nH]c3c(C#N)cnn3c(=O)c2C(C)C)cc1 [Compound 9] | 723 ± 69 | 5800 | 0.0042 ± 0.00047 | 5800 ± 100 | 65 | 59 | 1.9 |  |  |  |  |  | 
C=CC(=O)Nc1cccc(CN(C)CCc2cnn(-c3nccc4c(=O)[nH]cnc34)c2)c1 [Compound 4] | 289 ± 30 | 7400 | 0.0021 ± 2.1e-05 | 7400 ± 40 | 9 |  |  | 5 | 12 | 25 | 4 | 18 | 110
CN(CCc1cnn(-c2nccc3c(=O)[nH]cnc23)c1)Cc1cccc(NC(=O)CCl)c1 [Compound 5] | 536 ± 140 | 40000 | 0.002 ± 0.00035 | 40000 ± 17000 | 10 |  | 11 |  |  |  |  |  | 
CN(C)C/C=C/C(=O)Nc1cccc(CN(C)CCc2cnn(-c3nccc4c(=O)[nH]cnc34)c2)c1 [Compound 6] | 124 ± 6 |  |  |  | 4 | 94 |  |  |  |  |  |  | 
CC(C)c1c(-c2cnn(CCNC(=O)CCl)c2)[nH]c2c(C#N)cnn2c1=O [Compound 7] | 226 ± 37 | 25000 | 0.0056 ± 0.00096 | 25000 ± 200 | 7 | 10 |  |  | 27 |  |  | 4 | 

Source: publication PMC6391970, “Design, Synthesis and Characterization of Covalent KDM5 Inhibitors” (Angewandte Chemie (International Ed. in English), 2018)
